Test results taken from ChEMBL document CHEMBL1201862, “PubChem BioAssay data set” (2004).
Activity calls are given as the source filed them.

What was measured:
[1] = target: Cytochrome P450 2C19 (Homo sapiens, UniProt P33261); assay: Cytochrome panel assay with activity outcomes. Panel member name: p450-cyp2c19 Compounds with AC50 equal or less than 10 uM are considered active; assay type: functional; settings: read-out: AC50
[2] = target: T1, Leucine aminopeptidase (Plasmodium falciparum 3D7, UniProt Q8IL11); assay: P. falciparum M17LAP inhibitors, primary screen, biochemical, fluorogenic H-Leu-NHMec substrate, 1536-well (AID 1619); assay type: functional
T1 sequence (Q8IL11 whole entry): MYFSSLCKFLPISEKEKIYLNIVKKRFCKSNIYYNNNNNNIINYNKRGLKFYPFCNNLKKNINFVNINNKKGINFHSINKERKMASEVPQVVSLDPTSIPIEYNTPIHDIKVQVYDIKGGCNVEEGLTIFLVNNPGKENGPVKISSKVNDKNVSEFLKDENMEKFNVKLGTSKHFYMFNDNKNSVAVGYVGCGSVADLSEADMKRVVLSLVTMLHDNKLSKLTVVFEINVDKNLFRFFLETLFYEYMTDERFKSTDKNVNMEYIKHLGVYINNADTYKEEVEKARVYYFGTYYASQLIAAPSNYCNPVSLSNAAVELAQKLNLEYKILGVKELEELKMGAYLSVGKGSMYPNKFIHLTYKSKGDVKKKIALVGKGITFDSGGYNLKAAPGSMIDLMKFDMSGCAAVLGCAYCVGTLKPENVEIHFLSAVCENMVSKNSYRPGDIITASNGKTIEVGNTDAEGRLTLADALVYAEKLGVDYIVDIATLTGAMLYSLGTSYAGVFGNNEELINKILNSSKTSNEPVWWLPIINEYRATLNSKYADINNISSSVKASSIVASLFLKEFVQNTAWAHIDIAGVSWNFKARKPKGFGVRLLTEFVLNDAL

[3] = target: Cytochrome P450 3A4 (Homo sapiens, UniProt P08684);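 also: CYP3A4 tested as one member of a cytochrome P450 panel screen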
[4] = target: T2, RNA-binding protein pos-1 (Caenorhabditis elegans, UniProt G5EF15); assay: disruptors of C. elegans POS-1 RNA interaction – biochemical, fluorescence polarization, dose response (AID 1964);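 also: purified POS-1 fused to maltose binding protein made in E. coli; potency of compounds blocking POS-1 binding to fluorescent RNA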
T2 sequence (G5EF15 whole entry): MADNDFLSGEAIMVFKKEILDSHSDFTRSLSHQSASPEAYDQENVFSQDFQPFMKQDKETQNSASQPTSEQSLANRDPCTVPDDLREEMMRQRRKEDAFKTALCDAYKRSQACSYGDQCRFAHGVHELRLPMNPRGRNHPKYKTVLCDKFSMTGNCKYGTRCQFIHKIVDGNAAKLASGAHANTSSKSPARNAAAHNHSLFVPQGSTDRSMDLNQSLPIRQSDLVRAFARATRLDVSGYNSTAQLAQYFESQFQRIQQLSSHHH

[5] = target: T3, Zinc finger protein mex-5 (Caenorhabditis elegans, UniProt Q9XUB2); assay: potency of MEX-5 RNA-binding blockers – biochemical, C. elegans, fluorescence polarization, dose response (AID 1960)
T3 sequence (Q9XUB2 whole entry): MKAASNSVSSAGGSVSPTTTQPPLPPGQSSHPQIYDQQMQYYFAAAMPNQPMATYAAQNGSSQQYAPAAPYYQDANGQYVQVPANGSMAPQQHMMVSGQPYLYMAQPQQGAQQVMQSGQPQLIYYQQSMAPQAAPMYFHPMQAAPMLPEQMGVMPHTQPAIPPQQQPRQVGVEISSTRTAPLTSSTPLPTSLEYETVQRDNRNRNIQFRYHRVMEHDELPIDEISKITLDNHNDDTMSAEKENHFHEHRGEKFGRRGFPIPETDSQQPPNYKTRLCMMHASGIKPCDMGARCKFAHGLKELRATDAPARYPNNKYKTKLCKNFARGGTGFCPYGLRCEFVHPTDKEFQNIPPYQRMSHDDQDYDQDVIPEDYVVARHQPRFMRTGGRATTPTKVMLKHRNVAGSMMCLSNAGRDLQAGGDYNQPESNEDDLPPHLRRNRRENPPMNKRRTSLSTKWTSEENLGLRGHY

[6] = tested on: BJ; assay: BJ-TERT-LT-ST fibroblast viability loss – cell-based, RAS-independent, luminescence, dose response (AID 1935); assay type: functional; settings: Homo sapiens;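 also: BJ fibroblasts immortalized with TERT plus LT and ST oncogenes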
[7] = tested on: BJ; assay: cells; assay type: functional, cell-based; settings: Homo sapiens
[8] = tested on: BJ; assay: BJ-TERT fibroblast viability loss – cell-based, RAS-independent, luminescence, dose response (AID 1933); assay type: functional; settings: Homo sapiens
[9] = tested on: INS1; assay: INS-1E survival protection against cytokine death – cell-based, luminescence, retest, dose response (AID 449756); assay type: functional; settings: Rattus norvegicus;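 also: cell death triggered by IL-1 beta plus TNF-alpha plus IFN-gamma mixture; protective hits raise ATP signal compared with cytokine alone wells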
[10] = DRD fibroblast viability loss – cell-based, non-viral oncogenic, luminescence, dose response (AID 1934); assay type: functional; settings: Homo sapiens
[11] = target: T4, Carboxy-terminal domain RNA polymerase II polypeptide A small phosphatase 1 (Homo sapiens, UniProt Q9GZU7); assay: CTDSP1 inhibitors, concentration-response, biochemical, absorbance readout, ultra-high-throughput screen actives (AID 540297); assay type: functional
T4 sequence (Q9GZU7 whole entry): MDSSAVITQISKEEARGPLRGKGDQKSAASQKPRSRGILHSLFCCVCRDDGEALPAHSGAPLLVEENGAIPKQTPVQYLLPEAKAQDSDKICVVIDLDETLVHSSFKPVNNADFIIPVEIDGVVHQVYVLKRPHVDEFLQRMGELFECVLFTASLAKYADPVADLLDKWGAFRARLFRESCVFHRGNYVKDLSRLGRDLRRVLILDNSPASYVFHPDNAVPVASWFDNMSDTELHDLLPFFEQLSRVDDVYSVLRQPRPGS

[12] = target: T5, Microphthalmia-associated transcription factor (Homo sapiens, UniProt O75030); assay: reducers of TRPM1 reporter luminescence, concentration series – cell-based, SK-MEL-5, cherry-picked, set 3, MITF inhibitor project, dose response (AID 493073); assay type: functional;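 also: SK-MEL-5 melanoma cells with luciferase driven by the MITF target TRPM1 promoter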
T5 sequence (O75030 whole entry): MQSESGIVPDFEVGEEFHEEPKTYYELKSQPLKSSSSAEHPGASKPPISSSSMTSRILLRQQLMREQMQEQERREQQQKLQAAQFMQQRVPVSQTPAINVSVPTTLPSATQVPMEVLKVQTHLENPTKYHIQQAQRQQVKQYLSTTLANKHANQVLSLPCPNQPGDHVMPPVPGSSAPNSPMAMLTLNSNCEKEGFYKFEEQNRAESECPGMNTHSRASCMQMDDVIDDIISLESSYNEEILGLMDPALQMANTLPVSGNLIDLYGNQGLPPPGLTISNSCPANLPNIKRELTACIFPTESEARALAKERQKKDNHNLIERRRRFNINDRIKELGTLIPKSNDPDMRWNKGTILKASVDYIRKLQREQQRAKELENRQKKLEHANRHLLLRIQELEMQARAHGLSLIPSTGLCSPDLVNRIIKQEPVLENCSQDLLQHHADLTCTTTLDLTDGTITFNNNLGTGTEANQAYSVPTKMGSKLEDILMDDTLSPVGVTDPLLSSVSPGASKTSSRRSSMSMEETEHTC

[13] = tested on: H9c2; assay: cells; assay type: functional, cell-based; settings: Rattus norvegicus, H9c2, Myocardium;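 also: confirmatory concentration-response retest of ultra-high-throughput screening hits for modulation of myocardial damage; cell death induced by hydrogen peroxide oxidative stress; compound pretreatment for 60 min then peroxide exposure for 2 h; potency is for protecting the cells against peroxide damage rather than for killing them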
[14] = viability loss in HeLa cells – cytotoxicity control for MgcRacGAP inhibitor project, dose response (AID 624300); assay type: functional
[15] = target: T6, Rac GTPase-activating protein 1 (Homo sapiens, UniProt Q9H0H5); assay: blockers of MgcRacGAP-driven Rac1 GTP hydrolysis – biochemical, ADP Hunter fluorescence, primary and confirmatory, confirmation (AID 624330); assay type: functional
T6 sequence (Q9H0H5 whole entry): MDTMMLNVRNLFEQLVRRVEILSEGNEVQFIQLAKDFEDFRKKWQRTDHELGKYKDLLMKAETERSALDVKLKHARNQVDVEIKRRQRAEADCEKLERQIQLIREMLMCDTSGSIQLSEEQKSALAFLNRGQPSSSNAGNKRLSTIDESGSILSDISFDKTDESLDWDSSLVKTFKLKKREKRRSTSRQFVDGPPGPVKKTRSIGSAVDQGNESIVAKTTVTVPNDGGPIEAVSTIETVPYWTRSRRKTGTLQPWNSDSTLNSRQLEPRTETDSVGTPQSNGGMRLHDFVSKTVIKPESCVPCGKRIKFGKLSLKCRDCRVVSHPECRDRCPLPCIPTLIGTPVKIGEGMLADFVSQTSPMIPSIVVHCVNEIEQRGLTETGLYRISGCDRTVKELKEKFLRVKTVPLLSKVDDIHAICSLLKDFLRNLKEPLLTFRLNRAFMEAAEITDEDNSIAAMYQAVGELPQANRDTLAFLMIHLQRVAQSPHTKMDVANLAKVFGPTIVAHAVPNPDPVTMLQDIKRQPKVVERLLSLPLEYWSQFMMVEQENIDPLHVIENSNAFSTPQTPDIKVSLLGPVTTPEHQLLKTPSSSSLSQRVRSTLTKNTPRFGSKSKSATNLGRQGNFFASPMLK

[16] = target: T7, Heat shock factor protein 1 (Mus musculus, UniProt P38532); assay: decrease of HSF1-responsive luciferase luminescence – cell-based, NIH3T3, dose retest, confirmation (AID 2382); assay type: functional;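 also: NIH3T3 fibroblasts with HSF1-driven luciferase reporter stressed by proteasome inhibitor MG132; luminescence from HSF1-driven luciferase expression after 8 hours of MG132 stress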
T7 sequence (P38532 whole entry): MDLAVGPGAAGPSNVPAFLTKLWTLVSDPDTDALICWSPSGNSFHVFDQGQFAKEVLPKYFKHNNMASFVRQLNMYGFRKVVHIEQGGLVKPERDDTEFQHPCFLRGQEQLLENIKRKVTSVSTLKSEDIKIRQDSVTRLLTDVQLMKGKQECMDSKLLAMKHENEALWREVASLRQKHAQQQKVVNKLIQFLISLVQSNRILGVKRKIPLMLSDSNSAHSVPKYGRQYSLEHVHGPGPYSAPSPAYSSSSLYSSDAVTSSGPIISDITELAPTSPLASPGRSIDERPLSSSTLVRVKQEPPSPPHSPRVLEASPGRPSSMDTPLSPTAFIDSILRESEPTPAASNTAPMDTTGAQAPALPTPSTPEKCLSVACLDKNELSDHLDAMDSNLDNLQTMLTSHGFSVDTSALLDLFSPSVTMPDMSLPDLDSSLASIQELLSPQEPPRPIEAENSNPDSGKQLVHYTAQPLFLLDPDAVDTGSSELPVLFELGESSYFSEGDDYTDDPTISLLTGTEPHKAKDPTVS

[17] = tested on: Vero; assay: cells; assay type: functional; settings: Chlorocebus sabaeus
[18] = alpha-synuclein stem-loop luciferase translation blockers – H4 neuroglioma cells, luminescence, confirmation (AID 1988); assay type: functional, cell-based
[19] = luciferase reporter signal suppression in cells – H4 neuroglioma cells, luminescence, dose response (AID 1990); assay type: functional, cell-based
[20] = Luminescence Cell-Based Dose Response HTS to Identify Inhibitors of 5'UTR Stem-Loop Driven Prion Protein mRNA Translation in H4 Neuroglioblastoma Cells. [Related pubchem assays: 1827 (Project Summary), 1813 (Primary HTS)]; assay type: functional

Cytochrome P450 2C19, sequence (P33261 whole entry): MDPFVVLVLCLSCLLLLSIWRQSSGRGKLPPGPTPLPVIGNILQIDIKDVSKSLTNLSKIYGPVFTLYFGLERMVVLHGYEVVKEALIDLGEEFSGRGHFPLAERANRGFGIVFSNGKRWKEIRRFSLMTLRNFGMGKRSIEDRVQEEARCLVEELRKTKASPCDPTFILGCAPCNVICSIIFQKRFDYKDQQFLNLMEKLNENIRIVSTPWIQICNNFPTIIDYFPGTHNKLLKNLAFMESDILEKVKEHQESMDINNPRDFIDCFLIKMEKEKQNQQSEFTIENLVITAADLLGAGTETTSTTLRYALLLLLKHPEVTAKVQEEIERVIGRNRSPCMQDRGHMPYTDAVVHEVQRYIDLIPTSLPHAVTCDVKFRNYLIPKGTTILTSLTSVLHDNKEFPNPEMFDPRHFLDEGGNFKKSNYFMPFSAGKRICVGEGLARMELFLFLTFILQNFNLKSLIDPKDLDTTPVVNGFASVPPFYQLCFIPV
Cytochrome P450 3A4, sequence (P08684 whole entry, the tested form may be a part): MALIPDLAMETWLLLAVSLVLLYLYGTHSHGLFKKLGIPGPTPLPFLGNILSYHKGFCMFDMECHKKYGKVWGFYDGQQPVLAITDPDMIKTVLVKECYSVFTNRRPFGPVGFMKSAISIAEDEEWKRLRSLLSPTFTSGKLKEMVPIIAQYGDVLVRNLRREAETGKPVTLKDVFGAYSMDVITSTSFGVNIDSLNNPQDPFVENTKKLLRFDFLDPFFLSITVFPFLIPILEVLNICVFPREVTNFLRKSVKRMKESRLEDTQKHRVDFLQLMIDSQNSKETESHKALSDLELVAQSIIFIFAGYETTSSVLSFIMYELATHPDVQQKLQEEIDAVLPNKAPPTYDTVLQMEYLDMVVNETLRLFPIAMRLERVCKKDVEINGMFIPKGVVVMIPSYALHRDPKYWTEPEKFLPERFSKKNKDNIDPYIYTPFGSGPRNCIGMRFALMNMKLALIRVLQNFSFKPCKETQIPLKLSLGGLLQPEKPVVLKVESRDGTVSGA

Clc1ccc(Nc2nc[nH]n2)cc1
AC50 [1]: 14.1 µM (inconclusive) | IC50 [2]: 1.53 µM (active) | AC50 [3]: 31.6 µM (inconclusive)

CCCCN1C(=O)/C(=C2/Sc3ccc(OC)cc3N2CC)SC1=S
EC50 [4]: > 300 µM (inconclusive) | EC50 [5]: > 300 µM (inconclusive)

C/C(=N\NC(=O)c1ccccc1NC(=O)c1ccc(Cl)cc1)c1ccncc1
EC50 [6]: 2.18 µM (inconclusive) | EC50 [7]: 1.21 µM (inconclusive) | EC50 [8]: 0.856 µM (inconclusive) | AC50 [9]: 0.902 µM (active) | EC50 [10]: 1.12 µM (active)

COc1ccc(/C=C2\CCCC(C(=O)C(F)(F)F)=C2O)cc1OC
EC50 [4]: > 300 µM (not active) | EC50 [5]: 254 µM (inconclusive)

CCOC(=O)/C(C#N)=C\C=C1C=CN(C)C=C1
IC50 [2]: 90 µM (active)

C=CCNC(=O)c1ccc(NC(=O)C2=CSCCO2)cc1
EC50 [6]: > 150 µM (not active) | EC50 [7]: 111 µM (active) | EC50 [8]: 24.8 µM (active) | EC50 [10]: 60.9 µM (active)

CCOC(=O)c1ccc2c(c1)[n+](CC)c(/C=C/N(C)c1ccccc1)n2CC
IC50 [11]: 4.04 µM (active) | AC50 [12]: 3.24 µM (active)

O=S(=O)(NNC(=S)Nc1ccc(S(=O)(=O)Nc2ncccn2)cc1)c1ccc(Br)cc1
EC50 [4]: 2.97 µM (inconclusive) | EC50 [5]: 5.04 µM (active)

CC1=C(C)CC(C(=O)Nc2cccc(Cl)c2)C(C(=O)O)C1 (centres undefined)
IC50 [2]: 2.38 µM (active)

Cc1cc(C)c(C)c(S(=O)(=O)N2CCN(C(=O)CCc3nc(O)c4ccccc4n3)CC2)c1C
IC50 [13]: > 79 µM (inactive)

c1ccc(-c2nn3c(-c4ccco4)nnc3s2)nc1
IC50 [13]: 12.8 µM (active)

Cn1c(=O)c2nc(NN=Cc3ccc(Br)cc3)[nH]c2n(C)c1=O
IC50 [13]: > 79 µM (inactive)

Nc1ccccc1C(=O)NNc1c2ccccc2nc2ccccc12
CC50 [14]: 100 µM (active) | IC50 [15]: 98.3 µM (active)

Cc1ccc(-n2c(SCC(=O)OC(C)C)nnc2-c2ccco2)cc1
IC50 [2]: 31.2 µM (active)

COc1cc2c(cc1N=C(S)Nc1cccc(C(F)(F)F)c1)oc1ccccc12
CC50 [14]: 100 µM (active) | IC50 [15]: 225 µM (active)

Cc1n[nH]c(O)c1/C=N/N1CCOCC1
EC50 [4]: > 300 µM (not active) | EC50 [5]: > 300 µM (not active)

O=C(CCc1nc(O)c2ccccc2n1)N1CCN(S(=O)(=O)c2cccc([N+](=O)[O-])c2)CC1
IC50 [13]: > 79 µM (inactive)

COc1ccc(-c2csc(/C(C#N)=C(\O)CSc3nccn3C)n2)cc1OC
EC50 [16]: > 195 µM (not active) | IC50 [13]: > 79 µM (inactive)

CCOc1ccccc1NC(=O)c1oc2ccccc2c1NC(=O)C1CCCO1 (centres undefined)
IC50 [13]: > 79 µM (inactive)

COc1ccc(-n2cccc2/C=C/[N+](=O)[O-])cc1
CC50 [14]: 42.3 µM (active) | CC50 [17]: 16 µM (active) | IC50 [15]: 44 µM (active)

O=C(O)c1cccc(-c2ccc(/C=N/NC(=O)C3COc4ccccc4O3)o2)c1 (centres undefined)
IC50 [2]: 45.6 µM (active)

OCCCNc1ncnc2sc3c(c12)CCN(Cc1ccccc1)C3
EC50 [4]: > 300 µM (not active) | EC50 [5]: 24.9 µM (active)

COc1cccc(NC(=O)CSc2nc3c(oc4ccccc43)c(=O)[nH]2)c1
IC50 [2]: < 1 µM (active)

CC1(C)CC(=O)C2=C(C1)OC(N)=C(C#N)C21C(=O)N2CCCc3cccc1c32 (centres undefined)
EC50 [4]: > 300 µM (not active) | EC50 [5]: > 300 µM (not active)

CCOc1cc(/C=C(\C#N)c2[nH]nc(N)c2C#N)ccc1O
EC50 [18]: > 120 µM (not active) | CC50 [14]: 100 µM (active) | EC50 [19]: 11.9 µM (active) | EC50 [20]: 14.6 µM (active)
